Test results taken from ChEMBL document CHEMBL1151125, “Constituents of Michelia Rajaniana. Two new germacranolide amides” (1988).

Experiments:
Assay type in all cases: functional
Details in all cases: read-out: ED50 (the source's name)
A549 = experiment: Cytotoxicity against human A549 cells
MCF7 = experiment: Cytotoxicity against human MCF7 cells
HT-29 = experiment: Cytotoxicity against human HT-29 cells

Measured: EC50

CC(=O)NC[C@@H]1C(=O)O[C@H]2[C@H]1[C@@H](O)C/C(C)=C/CC[C@@]1(C)O[C@@H]21
> 100 µg/mL: all assays above

CC(=O)NC[C@@H]1C(=O)O[C@H]2[C@H]1CC/C(C)=C/CC[C@@]1(C)O[C@@H]21
> 100 µg/mL: all assays above
